Assay results: patent US7135479B2, “Antidepressant azaheterocyclylmethyl derivatives of heterocycle-fused benzodioxans” (Wyeth, priority 2002, dated 2006)
Structures can show the parent of a compound that is named as a salt. Where two headings read alike, the source gives them in different places.

How the values were obtained:
[1] = molecular target: T1, serotonin transporter (Rattus norvegicus, UniProt P31652); assay: 3H-paroxetine displacement from male rat frontal cortical membranes (affinity for the serotonin transporter); format: binding; conditions: read-out: 5-HT Transporter Affinity KI
T1 construct: displace ^3H-paroxetine from male rat frontal cortical membranes; from tissue; host or cells: male rat frontal cortex membranes
T1 sequence (P31652 whole entry): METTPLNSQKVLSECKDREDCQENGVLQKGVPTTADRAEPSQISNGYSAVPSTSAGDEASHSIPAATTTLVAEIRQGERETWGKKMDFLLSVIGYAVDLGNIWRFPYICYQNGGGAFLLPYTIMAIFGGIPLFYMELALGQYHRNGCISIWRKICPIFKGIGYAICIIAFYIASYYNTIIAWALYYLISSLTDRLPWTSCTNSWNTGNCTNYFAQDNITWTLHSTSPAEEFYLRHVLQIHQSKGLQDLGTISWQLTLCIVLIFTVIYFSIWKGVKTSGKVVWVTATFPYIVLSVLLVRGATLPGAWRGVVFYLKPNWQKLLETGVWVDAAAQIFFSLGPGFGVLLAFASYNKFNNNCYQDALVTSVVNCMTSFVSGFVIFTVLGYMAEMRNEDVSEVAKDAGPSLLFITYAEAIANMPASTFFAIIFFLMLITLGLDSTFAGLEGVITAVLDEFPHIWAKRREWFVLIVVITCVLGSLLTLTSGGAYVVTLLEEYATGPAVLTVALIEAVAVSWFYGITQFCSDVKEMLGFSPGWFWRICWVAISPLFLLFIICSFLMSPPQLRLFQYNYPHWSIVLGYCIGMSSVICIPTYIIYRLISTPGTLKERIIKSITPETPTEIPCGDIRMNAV

[2] = molecular target: T2, cloned human 5-HT1A receptors (Homo sapiens, UniProt P08908); assay: 35S-GTPγS binding assay, antagonist activity at 5-HT1A receptors; format: biochemical; conditions: for IC50: potency in reversing the effects of the standard agonist 8-OHDPAT, read-out: 5-HT1A Receptor Affinity IC50 (nM) (Imax): IC50; for Emax: read-out: 5-HT1A Receptor Affinity IC50 (nM) (Imax): Imax
T2 construct: expressed in transfected cells
T2 sequence (P08908 1-422): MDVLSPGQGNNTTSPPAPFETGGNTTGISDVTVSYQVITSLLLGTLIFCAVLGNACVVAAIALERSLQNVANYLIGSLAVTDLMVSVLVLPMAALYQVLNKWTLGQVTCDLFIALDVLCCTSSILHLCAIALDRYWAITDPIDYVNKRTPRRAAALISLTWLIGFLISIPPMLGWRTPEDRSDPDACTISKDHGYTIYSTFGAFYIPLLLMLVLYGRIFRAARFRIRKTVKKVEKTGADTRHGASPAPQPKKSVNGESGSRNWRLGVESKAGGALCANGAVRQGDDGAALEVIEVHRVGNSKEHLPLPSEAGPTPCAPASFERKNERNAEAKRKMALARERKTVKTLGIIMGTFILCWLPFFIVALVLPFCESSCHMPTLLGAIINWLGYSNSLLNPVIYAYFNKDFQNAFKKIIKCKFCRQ
Protocol: Antagonist activity at 5-HT1A receptors was established by using a ^35S-GTPγS binding assay similar to that used by Lazareno and Birdsall (Br. J. Pharmacol. 109: 1120, 1993), in which the test compound's ability to affect the binding of ^35S-GTPγS to membranes containing cloned human 5-HT1A receptors was determined. Agonists produce an increase in binding whereas antagonists produce no increase but rather reverse the effects of the standard agonist 8-OHDPAT. The test compound's maximum inhibitory effect is represented as the Imax, while its potency is defined by the IC50.

[3] = molecular target: T3, human 5-HT1A receptors (Homo sapiens, UniProt P08908); assay: [3H] 8-OHDPAT displacement from 5-HT1A receptor, CHO cells stably transfected with human 5-HT1A receptors; format: binding; conditions: read-out: 5-HT1A Function KI
T3 construct: expressed in transfected cells; host or cells: CHO cells
T3 sequence (P08908 1-422): T2 sequence (P08908 1-422)
Source text: High affinity for the serotonin 5-HT1A receptor was established by testing the claimed compound's ability to displace [^3H] 8-OHDPAT (dipropylaminotetralin) from the 5-HT1A serotonin receptor following a modification of the procedure of Hall et al., J. Neurochem. 44, 1685 (1985) which utilizes CHO cells stably transfected with human 5-HT1A receptors.

[4] = value in brackets, maximum inhibitory effect

melting point | Ki [1] | IC50 [2] | Emax [2, 4] | Ki [3] | Compound | Emax [2]
178 to 180 °C |  |  |  |  | Cc1ccc2c3c(ccc2n1)OC[C@H](CN1CCC(Cn2ccc4ccc(C#N)cc42)CC1)O3 (as salt: fumarate) [Example 8] | 
68 °C (dec.) |  |  |  |  | Cc1ccc2c3c(ccc2n1)OCC(CN1CCCC(Cc2c[nH]c4ccc(F)cc24)C1)O3 (stereo not shown) (as salt: hydrochloride) [Example 2, 2-[3-(5-Fluoro-1H-indol-3-ylmethyl)-piperidin-1-ylmethyl]-8-methyl-2,3-dihydro-[1,4]dioxino[2,3-f]quinoline] | 
115 °C (dec.) |  |  |  |  | Cc1ccc2c3c(ccc2n1)OCC(CN1CC(CCn2ccc4ccc(F)cc42)C1)O3 (stereo not shown) (as salt: hydrochloride) [Example 10, 2-{3-[2-(6-Fluoro-indol-1-yl)-ethyl]-azetidin-1-ylmethyl}-8-methyl-2,3-dihydro-[1,4]dioxino[2,3-f]quinoline] | 
144 °C (dec.) |  |  |  |  | Cc1ccc2c3c(ccc2n1)OC[C@H](CN1CC(CCn2ccc4ccc(C#N)cc42)C1)O3 (as salt: hydrochloride) [Example 11, 1-{2-[1-(8-Methyl-2,3-dihydro-[1,4]-dioxino[2,3-f]quinolin-2-ylmethyl)-azetinin-3-yl]-ethyl}-1H-indole-6-carbonitrile] | 
193 to 195 °C |  |  |  |  | Cc1ccc2c3c(ccc2n1)OC[C@H](CN1CC(Cc2cn(C)c4ccc(F)cc24)C1)O3 (as salt: oxalate) [Example 5] | 
138 °C (dec.) |  |  |  |  | Cc1ccc2c3c(ccc2n1)OCC(CN1CC(Cn2ccc4ccc(F)cc42)C1)O3 (stereo not shown) (as salt: salt) [Example 9, 2-[3-(6-Fluoro-indol-1-ylmethyl)-azetidin-1-ylmethyl]-8-methyl-2,3-dihydro-[1,4]dioxino[2,3-f]quinoline] | 
 | 1.61 nM | 208 nM | 81.5% | 15.2 nM | CCc1ccc2c3c(ccc2n1)OC[C@H](CN1CCC(Cn2ccc4ccc(F)cc42)CC1)O3 [Example 7] | 
 | 0.11 nM |  |  | 55 nM | Cc1ccc2c3c(ccc2n1)OCC(CN1CC(Cn2ccc4ccc(F)cc42)C1)O3 (stereo not shown) [Example 9, 2-[3-(6-Fluoro-indol-1-ylmethyl)-azetidin-1-ylmethyl]-8-methyl-2,3-dihydro-[1,4]dioxino[2,3-f]quinoline] | 
 | 4.26 nM | 343 nM | 80% | 1.9 nM | Cc1ccc2c3c(ccc2n1)OCC(CN1CC(CCn2ccc4ccc(F)cc42)C1)O3 (stereo not shown) [Example 10, 2-{3-[2-(6-Fluoro-indol-1-yl)-ethyl]-azetidin-1-ylmethyl}-8-methyl-2,3-dihydro-[1,4]dioxino[2,3-f]quinoline] | 
 | 1.04 nM | 38.6 nM | 89.5% |  | Cc1ccc2[nH]cc(CC3CN(C[C@H]4COc5ccc6nc(C)ccc6c5O4)C3)c2c1 [Example 12, 8-Methyl-2-[3-(5-methyl-1H-indol-3-ylmethyl)-azetidin-1-ylmethyl]-2,3-dihydro-[1,4]dioxino[2,3-f]quinoline] | 

Continued, compound first:

Compound | melting point | Ki [1] | IC50 [2] | Emax [2, 4] | Ki [3] | Emax [2]
Cc1ccc2c3c(ccc2n1)OC[C@H](CN1CCC(Cn2ccc4ccc(F)cc42)CC1)O3 (as salt: fumarate) [Example 6] | 140 to 142 °C |  |  |  |  | 
Cc1ccc2c3c(ccc2n1)OCC(CN1CC(Cc2c[nH]c4ccc(F)cc24)C1)O3 (stereo not shown) (as salt: hydrochloride) [Example 1, 2-[3-(5-Fluoro-1H-indol-3-ylmethyl)-azetidin-1-ylmethyl]-8-methyl-2,3-dihydro-[1,4]dioxino[2,3-f]quinoline] | 125 °C (dec.) |  |  |  |  | 
CCc1ccc2c3c(ccc2n1)OC[C@H](CN1CCC(Cn2ccc4ccc(F)cc42)CC1)O3 (as salt: hydrochloride) [Example 7] | > 250 °C |  |  |  |  | 
Cc1ccc2c3c(ccc2n1)OCC(CN1CCCC(Cc2c[nH]c4cc(F)ccc24)C1)O3 (stereo not shown) (as salt: salt) [Example 3, 2-[3-(6-Fluoro-1H-indol-3-ylmethyl)-piperidin-1-ylmethyl]-8-methyl-2,3-dihydro-[1,4]dioxino[2,3-f]quinoline] | 50 °C (dec.) |  |  |  |  | 
Cc1ccc2c3c(ccc2n1)OCC(CN1CC(Cc2c[nH]c4ccc(F)cc24)C1)O3 (stereo not shown) [Example 1, 2-[3-(5-Fluoro-1H-indol-3-ylmethyl)-azetidin-1-ylmethyl]-8-methyl-2,3-dihydro-[1,4]dioxino[2,3-f]quinoline] |  | 1.29 nM | 59.5 nM | 73.7% | 2.5 nM | 
Cc1ccc2c3c(ccc2n1)OCC(CN1CCCC(Cc2c[nH]c4ccc(F)cc24)C1)O3 (stereo not shown) [Example 2, 2-[3-(5-Fluoro-1H-indol-3-ylmethyl)-piperidin-1-ylmethyl]-8-methyl-2,3-dihydro-[1,4]dioxino[2,3-f]quinoline] |  | 15.3 nM | 552 nM | 100% | 3.3 nM | 
Cc1ccc2c3c(ccc2n1)OCC(CN1CCCC(Cc2c[nH]c4cc(F)ccc24)C1)O3 (stereo not shown) [Example 3, 2-[3-(6-Fluoro-1H-indol-3-ylmethyl)-piperidin-1-ylmethyl]-8-methyl-2,3-dihydro-[1,4]dioxino[2,3-f]quinoline] |  | 15.1 nM | 666 nM | 100% | 3.4 nM | 
Cc1ccc2c3c(ccc2n1)OCC(CN1CC(Cc2c[nH]c4ccccc24)C1)O3 (stereo not shown) [Example 4, 2-[3-(1H-Indol-3-ylmethyl)-azetidin-1-ylmethyl]-8-methyl-2,3-dihydro-[1,4]dioxino[2,3-f]quinoline] |  | 0.56 nM | 37.2 nM |  | 9.2 nM | 76.4%
Cc1ccc2c3c(ccc2n1)OC[C@H](CN1CC(Cc2cn(C)c4ccc(F)cc24)C1)O3 [Example 5] |  | 0.72 nM | 34.5 nM | 96.3% | 16.7 nM | 
Cc1ccc2c3c(ccc2n1)OC[C@H](CN1CCC(Cn2ccc4ccc(F)cc42)CC1)O3 [Example 6] |  | 1.01 nM | 242 nM | 85.5% | 9.55 nM | 
Cc1ccc2c3c(ccc2n1)OC[C@H](CN1CCC(Cn2ccc4ccc(C#N)cc42)CC1)O3 [Example 8] |  | 0.6 nM | 243 nM | 100% | 6.56 nM | 
Cc1ccc2c3c(ccc2n1)OC[C@H](CN1CC(CCn2ccc4ccc(C#N)cc42)C1)O3 [Example 11, 1-{2-[1-(8-Methyl-2,3-dihydro-[1,4]-dioxino[2,3-f]quinolin-2-ylmethyl)-azetinin-3-yl]-ethyl}-1H-indole-6-carbonitrile] |  | 2.86 nM | 251 nM | 85% | 1.52 nM | 
